Target: T1, hA3G (human APOBEC3G) (Homo sapiens, UniProt Q9HC16)
T1 construct: 10067; biotinylated with NHS-biotin 3:1
Test: biolayer interferometry (Octet RED, super streptavidin sensors)
Assay type: binding
Settings: biotinylated hA3G immobilised; 5% DMSO; kinetic constant from kon/koff

T1 sequence (Q9HC16 whole entry): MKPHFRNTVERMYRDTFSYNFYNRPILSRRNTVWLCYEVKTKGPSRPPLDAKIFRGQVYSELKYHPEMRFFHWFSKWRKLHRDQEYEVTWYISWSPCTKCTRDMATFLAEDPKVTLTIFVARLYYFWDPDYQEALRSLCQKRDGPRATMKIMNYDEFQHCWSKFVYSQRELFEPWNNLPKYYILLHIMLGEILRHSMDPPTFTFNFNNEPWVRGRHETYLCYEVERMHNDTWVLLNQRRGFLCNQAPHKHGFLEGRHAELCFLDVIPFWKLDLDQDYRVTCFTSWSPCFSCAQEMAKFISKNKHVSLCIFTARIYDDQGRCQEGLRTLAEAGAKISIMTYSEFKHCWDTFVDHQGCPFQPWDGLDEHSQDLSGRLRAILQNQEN

- Ligand (hA3G) / KD (M): 1.56E − 05 M
Substance: IMB-301

Source: PMC5966509 (Scientific Reports, 2018)
